Data taken from paper PMC6210068 (ACS Omega, 2018).

Tests used:
muscarinic M5 receptor = muscarinic M5 receptor (Homo sapiens, UniProt P08912); experiment: PDSP off-target binding, muscarinic M5
5HT2A serotonin receptor = 5HT2A serotonin receptor (Homo sapiens, UniProt P28223); experiment: PDSP off-target binding, 5HT2A
DOR = DOR (Homo sapiens, UniProt P41143); experiment: Radioligand binding at DOR
hDAT = hDAT (Homo sapiens, UniProt Q01959); experiment: Radioligand binding at DAT; settings: 10 μM; [3H]WIN35428; negative = enhanced radioligand binding
hDAT, sequence (Q01959 whole entry): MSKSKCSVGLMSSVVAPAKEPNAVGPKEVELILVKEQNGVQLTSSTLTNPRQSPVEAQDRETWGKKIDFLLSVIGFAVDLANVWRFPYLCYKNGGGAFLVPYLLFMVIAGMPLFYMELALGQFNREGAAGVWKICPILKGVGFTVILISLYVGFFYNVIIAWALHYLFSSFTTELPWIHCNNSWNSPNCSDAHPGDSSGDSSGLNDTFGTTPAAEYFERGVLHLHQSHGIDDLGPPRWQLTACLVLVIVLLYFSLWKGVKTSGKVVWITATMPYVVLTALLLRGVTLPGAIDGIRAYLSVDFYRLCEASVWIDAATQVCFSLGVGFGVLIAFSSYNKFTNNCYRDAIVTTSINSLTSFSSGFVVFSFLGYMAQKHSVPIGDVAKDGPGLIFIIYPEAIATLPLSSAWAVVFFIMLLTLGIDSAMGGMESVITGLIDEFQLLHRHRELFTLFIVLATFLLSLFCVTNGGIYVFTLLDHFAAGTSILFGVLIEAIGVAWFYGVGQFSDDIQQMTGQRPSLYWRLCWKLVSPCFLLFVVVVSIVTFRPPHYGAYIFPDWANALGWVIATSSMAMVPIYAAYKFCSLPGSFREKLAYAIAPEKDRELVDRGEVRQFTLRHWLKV

hA3AR = target: T1, hA3AR (Homo sapiens, UniProt P0DMS8); experiment: A3AR binding
T1 sequence (P0DMS8 1-318): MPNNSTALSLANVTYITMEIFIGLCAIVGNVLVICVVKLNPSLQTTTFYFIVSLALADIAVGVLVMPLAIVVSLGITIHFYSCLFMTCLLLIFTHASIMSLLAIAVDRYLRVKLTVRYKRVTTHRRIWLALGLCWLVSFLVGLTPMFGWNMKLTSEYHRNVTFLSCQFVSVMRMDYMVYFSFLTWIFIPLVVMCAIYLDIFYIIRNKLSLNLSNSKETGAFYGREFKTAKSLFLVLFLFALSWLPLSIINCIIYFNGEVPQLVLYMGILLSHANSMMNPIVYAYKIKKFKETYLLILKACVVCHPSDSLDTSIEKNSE

rat kidney TSPO = rat kidney TSPO (Rattus norvegicus, UniProt P16257); experiment: Radioligand binding at TSPO; settings: TSPO, Ki, rat TSPO; [3H]PK11195
rat kidney TSPO, sequence (P16257 whole entry): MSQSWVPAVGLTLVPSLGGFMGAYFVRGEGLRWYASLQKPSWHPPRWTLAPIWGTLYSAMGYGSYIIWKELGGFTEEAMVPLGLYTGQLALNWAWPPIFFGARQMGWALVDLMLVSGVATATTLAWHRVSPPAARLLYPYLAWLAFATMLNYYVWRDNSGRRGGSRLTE

5HT2B serotonin receptor = 5HT2B serotonin receptor (Homo sapiens, UniProt P41595); experiment: PDSP off-target binding, 5HT2B
5HT2B serotonin receptor, sequence (P41595 whole entry): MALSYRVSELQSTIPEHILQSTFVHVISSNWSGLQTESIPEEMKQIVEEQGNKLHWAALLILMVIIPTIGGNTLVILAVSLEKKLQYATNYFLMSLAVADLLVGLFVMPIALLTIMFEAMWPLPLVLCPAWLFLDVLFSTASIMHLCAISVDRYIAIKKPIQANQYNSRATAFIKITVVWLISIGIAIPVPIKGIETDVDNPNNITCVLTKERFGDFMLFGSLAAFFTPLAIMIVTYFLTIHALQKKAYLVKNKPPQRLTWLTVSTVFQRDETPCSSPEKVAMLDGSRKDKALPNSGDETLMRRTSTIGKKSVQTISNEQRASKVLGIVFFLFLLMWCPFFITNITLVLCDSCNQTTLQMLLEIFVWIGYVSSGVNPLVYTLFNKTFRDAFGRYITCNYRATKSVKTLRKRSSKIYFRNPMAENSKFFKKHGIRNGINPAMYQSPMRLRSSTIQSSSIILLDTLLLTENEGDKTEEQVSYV

5HT2C serotonin receptor = target: T2, 5HT2C serotonin receptor (Homo sapiens, UniProt P28335); experiment: PDSP off-target binding, 5HT2C
T2 sequence (P28335 33-458): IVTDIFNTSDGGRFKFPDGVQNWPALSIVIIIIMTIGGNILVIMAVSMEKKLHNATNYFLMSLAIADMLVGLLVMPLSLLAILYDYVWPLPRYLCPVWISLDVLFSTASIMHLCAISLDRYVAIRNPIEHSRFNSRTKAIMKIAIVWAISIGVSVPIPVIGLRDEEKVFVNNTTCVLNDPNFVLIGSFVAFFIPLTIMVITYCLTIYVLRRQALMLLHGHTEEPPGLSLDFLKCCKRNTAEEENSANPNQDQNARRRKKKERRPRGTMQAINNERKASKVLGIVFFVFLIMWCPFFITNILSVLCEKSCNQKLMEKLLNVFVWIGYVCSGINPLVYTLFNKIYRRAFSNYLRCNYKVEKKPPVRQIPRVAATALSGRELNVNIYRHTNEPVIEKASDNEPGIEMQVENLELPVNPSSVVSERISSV

MOR = MOR (Homo sapiens, UniProt P35372); experiment: biochemical; format: binding
MOR, sequence (P35372 whole entry): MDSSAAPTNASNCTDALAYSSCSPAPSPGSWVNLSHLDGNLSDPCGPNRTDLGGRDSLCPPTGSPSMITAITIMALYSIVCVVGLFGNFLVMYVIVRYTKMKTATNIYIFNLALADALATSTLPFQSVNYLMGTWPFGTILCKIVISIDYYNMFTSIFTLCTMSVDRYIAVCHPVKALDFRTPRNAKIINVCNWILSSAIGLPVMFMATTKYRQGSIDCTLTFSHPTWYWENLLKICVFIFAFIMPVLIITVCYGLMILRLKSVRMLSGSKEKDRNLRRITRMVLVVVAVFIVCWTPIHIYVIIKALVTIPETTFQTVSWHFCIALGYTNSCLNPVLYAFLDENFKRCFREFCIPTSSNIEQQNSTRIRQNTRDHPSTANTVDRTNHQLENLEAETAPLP

KOR [1] = target: T3, KOR (Homo sapiens, UniProt P41145); experiment: biochemical; format: binding; settings: for Ki: KOR, [3H]U69593, mean ± SEM, N = 2–4
T3 sequence (P41145 whole entry): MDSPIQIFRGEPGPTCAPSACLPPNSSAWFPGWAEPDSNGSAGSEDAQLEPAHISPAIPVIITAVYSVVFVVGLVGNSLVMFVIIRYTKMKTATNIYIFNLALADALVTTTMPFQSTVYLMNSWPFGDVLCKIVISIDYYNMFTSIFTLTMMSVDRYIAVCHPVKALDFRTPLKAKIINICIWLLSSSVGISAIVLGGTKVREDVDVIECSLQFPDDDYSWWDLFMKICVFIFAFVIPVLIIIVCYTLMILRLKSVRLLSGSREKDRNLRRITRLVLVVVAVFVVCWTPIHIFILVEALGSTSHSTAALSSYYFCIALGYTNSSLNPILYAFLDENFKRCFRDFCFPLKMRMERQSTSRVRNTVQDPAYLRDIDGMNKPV

β3 adrenergic receptor = β3 adrenergic receptor (Homo sapiens, UniProt P13945); experiment: PDSP off-target binding, β3 adrenergic
[2] = target: human α2C adrenergic receptor (Homo sapiens, UniProt P18825); experiment: PDSP off-target binding, α2C adrenergic
human α2C adrenergic receptor, sequence (P18825 whole entry): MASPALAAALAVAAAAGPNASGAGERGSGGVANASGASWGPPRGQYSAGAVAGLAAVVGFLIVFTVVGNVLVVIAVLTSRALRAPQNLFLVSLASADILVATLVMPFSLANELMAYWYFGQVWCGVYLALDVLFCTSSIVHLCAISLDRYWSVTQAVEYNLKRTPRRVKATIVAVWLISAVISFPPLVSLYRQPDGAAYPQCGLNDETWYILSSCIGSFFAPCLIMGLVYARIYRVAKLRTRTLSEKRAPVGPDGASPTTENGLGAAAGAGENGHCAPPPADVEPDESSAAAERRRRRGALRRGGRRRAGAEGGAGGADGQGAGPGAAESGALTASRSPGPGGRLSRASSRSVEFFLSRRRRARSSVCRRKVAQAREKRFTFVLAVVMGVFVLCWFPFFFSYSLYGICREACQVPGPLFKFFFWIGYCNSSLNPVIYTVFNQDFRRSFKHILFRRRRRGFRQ

rat σ2 receptor = target: T4, rat σ2 receptor (Rattus norvegicus, UniProt Q5U3Y7); experiment: PDSP binding, σ2 receptor
T4 sequence (Q5U3Y7 1-176): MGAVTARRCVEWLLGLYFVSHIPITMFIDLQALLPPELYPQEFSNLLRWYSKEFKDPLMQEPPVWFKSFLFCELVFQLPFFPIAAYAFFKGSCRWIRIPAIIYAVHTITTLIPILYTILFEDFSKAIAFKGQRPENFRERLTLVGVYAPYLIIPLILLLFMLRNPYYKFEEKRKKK

[3] = target: rat brain benzodiazepine receptor; experiment: PDSP binding, rat brain benzodiazepine receptor; settings: read-out: rat brain benzodiazepine receptor, Ki
hSERT = hSERT (Homo sapiens, UniProt P31645); experiment: biochemical; format: binding
hA1AR = target: T5, hA1AR (Homo sapiens, UniProt P30542); experiment: hA1AR binding
T5 sequence (P30542 1-326): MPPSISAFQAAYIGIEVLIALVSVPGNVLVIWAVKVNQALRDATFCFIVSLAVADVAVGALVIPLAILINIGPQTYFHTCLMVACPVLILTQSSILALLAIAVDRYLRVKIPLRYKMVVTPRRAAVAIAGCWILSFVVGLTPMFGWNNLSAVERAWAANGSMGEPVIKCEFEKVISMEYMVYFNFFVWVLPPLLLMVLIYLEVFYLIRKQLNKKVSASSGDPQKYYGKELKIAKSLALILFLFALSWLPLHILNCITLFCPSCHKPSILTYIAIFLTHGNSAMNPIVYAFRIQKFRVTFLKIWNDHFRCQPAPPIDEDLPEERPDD

muscarinic M1 receptor = muscarinic M1 receptor (Homo sapiens, UniProt P11229); experiment: PDSP off-target binding, muscarinic M1
muscarinic M1 receptor, sequence (P11229 whole entry): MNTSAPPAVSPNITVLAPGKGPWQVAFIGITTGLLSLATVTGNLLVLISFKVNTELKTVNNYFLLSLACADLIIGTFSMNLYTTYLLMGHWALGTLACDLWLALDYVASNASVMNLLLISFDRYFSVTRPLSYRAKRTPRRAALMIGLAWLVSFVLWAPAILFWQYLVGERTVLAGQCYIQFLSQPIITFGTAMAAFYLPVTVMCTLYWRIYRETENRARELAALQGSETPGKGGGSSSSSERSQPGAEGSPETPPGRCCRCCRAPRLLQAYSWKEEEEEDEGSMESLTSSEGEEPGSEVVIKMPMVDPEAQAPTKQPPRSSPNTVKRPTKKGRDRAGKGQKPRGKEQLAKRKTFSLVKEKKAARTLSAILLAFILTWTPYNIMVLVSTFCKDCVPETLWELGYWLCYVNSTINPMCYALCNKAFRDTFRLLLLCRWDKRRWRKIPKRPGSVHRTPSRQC

KOR [4] = target: T3, KOR; experiment: cell-based; format: cell-based
hA2AAR = hA2AAR (Homo sapiens, UniProt P29274); experiment: hA2AAR binding; settings: read-out: binding inhibition at hA2AAR (% at 10 μM)
hA2AAR, sequence (P29274 whole entry): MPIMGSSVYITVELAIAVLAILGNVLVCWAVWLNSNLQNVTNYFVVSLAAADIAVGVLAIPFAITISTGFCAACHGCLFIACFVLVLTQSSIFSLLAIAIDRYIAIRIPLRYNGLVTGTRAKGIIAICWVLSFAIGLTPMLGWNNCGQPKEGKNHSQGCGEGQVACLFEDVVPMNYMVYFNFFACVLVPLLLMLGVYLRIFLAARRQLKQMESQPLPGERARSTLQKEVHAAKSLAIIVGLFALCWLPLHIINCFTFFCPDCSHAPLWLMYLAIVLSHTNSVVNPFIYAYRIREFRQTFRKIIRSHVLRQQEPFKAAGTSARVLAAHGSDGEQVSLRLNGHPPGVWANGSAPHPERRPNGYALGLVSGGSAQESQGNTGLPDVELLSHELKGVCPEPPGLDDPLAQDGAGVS

KOR [5] = target: T3, KOR; format: cell-based

DOR, sequence (P41143 whole entry): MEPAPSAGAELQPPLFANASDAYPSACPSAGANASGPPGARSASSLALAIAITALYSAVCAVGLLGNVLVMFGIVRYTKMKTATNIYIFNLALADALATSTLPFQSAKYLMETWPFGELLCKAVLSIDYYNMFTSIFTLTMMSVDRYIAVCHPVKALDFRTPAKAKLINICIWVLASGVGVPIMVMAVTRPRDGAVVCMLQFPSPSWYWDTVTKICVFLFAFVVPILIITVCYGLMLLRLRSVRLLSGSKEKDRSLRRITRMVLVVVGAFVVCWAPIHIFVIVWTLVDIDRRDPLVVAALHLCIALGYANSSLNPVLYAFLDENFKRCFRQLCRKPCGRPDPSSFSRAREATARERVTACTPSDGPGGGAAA
5HT2A serotonin receptor, sequence (P28223 whole entry): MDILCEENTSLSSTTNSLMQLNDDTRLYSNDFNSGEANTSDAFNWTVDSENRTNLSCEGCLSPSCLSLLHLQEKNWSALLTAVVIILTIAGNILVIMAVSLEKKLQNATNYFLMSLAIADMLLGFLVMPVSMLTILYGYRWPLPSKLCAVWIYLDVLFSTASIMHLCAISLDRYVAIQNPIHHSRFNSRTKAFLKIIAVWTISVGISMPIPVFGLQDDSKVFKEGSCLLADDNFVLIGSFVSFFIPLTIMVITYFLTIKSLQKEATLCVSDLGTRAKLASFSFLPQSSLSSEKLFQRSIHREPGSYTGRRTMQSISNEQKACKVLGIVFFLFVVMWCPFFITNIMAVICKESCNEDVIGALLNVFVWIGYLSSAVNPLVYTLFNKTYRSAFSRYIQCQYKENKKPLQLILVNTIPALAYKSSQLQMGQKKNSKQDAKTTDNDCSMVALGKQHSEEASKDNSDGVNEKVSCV
muscarinic M5 receptor, sequence (P08912 whole entry): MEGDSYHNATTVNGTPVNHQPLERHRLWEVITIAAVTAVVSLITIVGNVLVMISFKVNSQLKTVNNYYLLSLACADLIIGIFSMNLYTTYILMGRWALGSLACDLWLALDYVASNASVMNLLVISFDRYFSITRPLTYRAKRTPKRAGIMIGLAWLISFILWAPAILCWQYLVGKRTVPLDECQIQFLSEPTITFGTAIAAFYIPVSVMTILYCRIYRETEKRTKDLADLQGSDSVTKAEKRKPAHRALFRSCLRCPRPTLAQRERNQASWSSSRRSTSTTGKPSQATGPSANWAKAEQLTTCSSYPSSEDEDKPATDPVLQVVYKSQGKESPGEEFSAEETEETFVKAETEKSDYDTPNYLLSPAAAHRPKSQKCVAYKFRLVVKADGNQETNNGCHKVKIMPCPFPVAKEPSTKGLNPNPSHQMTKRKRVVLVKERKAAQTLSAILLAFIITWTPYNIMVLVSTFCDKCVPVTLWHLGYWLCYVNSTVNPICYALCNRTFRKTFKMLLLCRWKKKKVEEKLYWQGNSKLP

| SMILES | Ki (5HT2A serotonin receptor) [nM] | DAT, inhibition, % of control at 10 μM (hDAT) | Ki (hA3AR) [nM] | Ki (rat kidney TSPO) [nM] | Ki (5HT2B serotonin receptor) [nM] | Ki [2] [nM] | Ki (rat σ2 receptor) [nM] | Ki (DOR) [nM] | Ki (MOR) [nM] | Ki (KOR [1]) [nM] | Ki (hA1AR) [nM] | also measured |
| --- | --- | --- | --- | --- | --- | --- | --- | --- | --- | --- | --- | --- |
| CCOC(=O)[C@@]12C[C@@H]1[C@@H](n1cnc3c(NC)nc(C#Cc4ccc(Cl)s4)cc31)[C@H](O)[C@@H]2O [compound 27] | 1300 ± 290 | –354% | 47.3 ± 18.9 | 3390 ± 640 | 1780 ± 280 | – | – | – | – | – | – | Ki (muscarinic M5 receptor): 3850 nM; DOR, inhibition of radioligand binding at 10 μM (class) (DOR; Table 2): ^d (<30% inhibition of radioligand binding at 10 μM); Ki (5HT2C serotonin receptor): 400 nM; MOR, inhibition of radioligand binding at 10 μM (class) (MOR; Table 2, 10 μM): ^d (<30% inhibition of radioligand binding at 10 μM); KOR binding inhibition at 10 μM (KOR [1]; 10 μM): < 10%; KOR, inhibition of radioligand binding at 10 μM (class) (KOR [1]; Table 2, 10 μM): ^d (<30% inhibition of radioligand binding at 10 μM) |
| CNC(=O)[C@@]12C[C@@H]1[C@@H](n1cnc3c(NCc4cccc(Cl)c4)nc(C#Cc4ccccc4)nc31)[C@H](O)[C@@H]2O [compound 6] | – | 7% | – | 2650 ± 290 | 2960 ± 600 | 6300 | 1540 | – | – | – | – | DOR, inhibition of radioligand binding at 10 μM (class) (DOR; Table 1): ^e (30–50% inhibition of radioligand binding at 10 μM); Ki (β3 adrenergic receptor): 2600 nM |
| O[C@@H]1[C@H](O)[C@@H]2C[C@@H]2[C@H]1n1ccc2c(NC(C3CC3)C3CC3)nc(C#Cc3ccc(Br)s3)nc21 [compound 57, (1R,2R,3S,4R,5S)-4-(2-((5-Bromothiophen-2-yl)ethynyl)-4-((dicyclopropylmethyl)amino)-7H-pyrrolo[2,3-d]pyrimidin-7-yl)bicyclo[3.1.0]hexane-2,3-diol] | 4340 ± 1740 | – | 2440 ± 430 | – | – | – | 6920 | > 10000 | > 10000 | 3020 ± 90 | – | Ki [3]: 118 nM |
| CCOC(=O)[C@@]12C[C@@H]1[C@@H](n1ccc3c(NC)nc(I)nc31)[C@@H]1OC(C)(C)O[C@@H]12 [compound 73, Ethyl(3aR,3bS,4aS,5R,5aS)-5-(2-iodo-4-(methylamino)-7H-pyrrolo[2,3-d]pyrimidin-7-yl)-2,2-dimethyltetrahydrocyclopropa[3,4]cyclopenta[1,2-d][1,3]dioxole-3b(3aH)-carboxylate] | – | –39% | 4050 ± 740 | > 10000 | – | – | – | > 10000 | 7600 | 276 ± 65 | 1110 | Ki (hSERT): 6580 nM |
| O[C@@H]1[C@H](O)[C@@H]2C[C@@H]2[C@H]1n1ccc2c(NCCc3ccccc3)nc(C#Cc3ccccc3)nc21 [compound 55, (1R,2R,3S,4R,5S)-4-(4-(Phenethylamino)-2-(phenylethynyl)-7H-pyrrolo[2,3-d]pyrimidin-7-yl)bicyclo[3.1.0]hexane-2,3-diol] | – | – | 217 ± 65 | 2120 ± 230 | 3060 ± 170 | – | – | 3660 ± 1330 | 4020 ± 890 | 1370 ± 180 | 1300 | reduction of hA3AR binding affinity by 7-deaza modification (hA3AR; 28 vs 24, 54 vs 49, 55 vs 51): 11 fold; Ki (muscarinic M1 receptor): 6970 nM |
| CCOC(=O)[C@@]12C[C@@H]1[C@@H](n1ccc3c(NCCc4ccccc4)nc(C#Cc4ccccc4)nc31)[C@H](O)[C@@H]2O [compound 43, Ethyl(1S,2R,3S,4R,5S)-2,3-dihydroxy-4-(4-(phenethylamino)-2-(phenylethynyl)-7H-pyrrolo[2,3-d]pyrimidin-7-yl)bicyclo[3.1.0]hexane-1-carboxylate] | – | 21% | 483 ± 62 | 480 ± 200 | – | 510 | – | 627 ± 178 | 1770 ± 540 | 207 ± 21 | – | inhibition of agonist 98 in cAMP assay (KOR [4]; 100 nM 98): did not inhibit; inhibition at 30 µM (KOR [4]; CHO, read-out: inhibition of cAMP accumulation, % inhibition at 30 μM): 23%; inhibition at 10 µM (hA2AAR): < 10%; inhibition at 10 µM (hA1AR; read-out: binding inhibition at hA1AR (% at 10 μM)): 26%; inhibition of agonist 98 in βarrestin2 assay (KOR [5]; 1 μM 98): did not inhibit; βarrestin2 recruitment, agonist effect relative to full agonist 98 (KOR [5]; agonist mode, highest concentrations): 30 ± 4.6% |
